Data set [1] is described as follows: LNP size and polydispersity index by Malvern Zetasizer dynamic light scattering (CA HA modFlu mRNA LNPs). Type of data set: physicochemical. The following applies: DLS; for Size (nm): LNP of the ionizable lipid:cholesterol:DSPC:ALC-0159 about 46.3:42.7:9.4:1.6, N:P about 6:1, CA HA modFlu mRNA; for PDI: LNP with CA HA modFlu mRNA. In a few lines: (§1)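 LNPs of ionizable lipid:cholesterol:DSPC:ALC-0159 (molar ratio about 46.3:42.7:9.4:1.6) formed by syringe-pump mixing of ethanolic lipids with mRNA at N:P about 6:1, then dialysed into buffer (e.g., Tris) and filtered. Size and PDI measured by DLS; total RNA and encapsulation efficiency by RiboGreen.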

Data set [2] is described as follows: LNP size and size distribution by dynamic light scattering (WISC HA modFlu mRNA LNPs). The following applies: DLS; for Size (nm): LNP of the ionizable lipid:cholesterol:DSPC:PEG-Lipid about 46.3:42.7:9.4:1.6 with WISC HA modFlu mRNA; for PDI: LNP with WISC HA modFlu mRNA. It counts as physicochemical. As to the method: (§2) Lipid nanoparticles were prepared and tested according to the general procedures described in U.S. Pat. No. 9,737,619 (PCT Pub. No. WO2015/199952) and U.S. Pat. No. 10,166,298 (PCT Pub. No. WO 2017/075531) and PCT Pub. No. WO2020/146805. The novel ionizable lipids of the invention, cholesterol, DSPC and PEG-Lipid were solubilized in Ethanol at a molar ratio of about 46.3:42.7:9.4:1.6. Lipid nanoparticles (LNP) were prepared at a total lipid to mRNA ratio of about 23:1. In short, the mRNA (WISC HA modFlu) was diluted in buffer. Syringe pumps were used to mix the lipid solution with the mRNA solution. The ethanol was removed, and external buffer replaced with another buffer (e.g., Tris) by dialysis. Finally, the lipid nanoparticle size and size distribution were determined by dynamic light scattering using an Unchained Labs Stunner (Unchained Labs, USA). RNA encapsulation efficiency was determined using the Quant-iT RiboGreen RNA assay (Life Technologies, USA). Briefly, LNPs were incubated with RiboGreen dye (200-fold dilution per manufactures' instruction) in the presence and absence of 1% Triton-X 100 and fluorescence intensities (Excitation/Emission: 485/528 […]) were measured for unencapsulated RNA and total RNA after release from LNPs by Triton-X 100.

For the next data set, the system named is HEK293F cells. As to the kind of experiment: In vitro expression of novel ionizable lipid nanoparticles, high content imaging (CA HA modFlu mRNA). Type of data set: cell-based. Conditions: LNP with CA HA modFlu mRNA. In a few lines:
(§3)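 Lipid nanoparticles of ionizable lipid, cholesterol, DSPC and ALC-0159 (about 46.3:42.7:9.4:1.6 molar), N:P about 6:1, carrying mRNA, dosed onto cells overnight at 37° C., 5% CO2. Cells fixed and stained with Hoechst plus antibody to encoded protein; nuclei and antigen-positive cells counted by high-content imaging.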

Data set [3] relates to Hela cells. The description is as above. Type of data set: cell-based. The following applies: LNP with CA HA modFlu mRNA. In a few lines:
as §3

A further data set concerns Hek293T cells. As to the kind of experiment: In vitro expression of encoded gene of interest after LNP dosing, high content imaging (WISC HA modFlu mRNA). Conditions: LNP with WISC HA modFlu mRNA, overnight incubation. It counts as cell-based. As to the method: as §2
(§4) Plated Hek293T or Hela cells were dosed with lipid nanoparticles in a total volume of 40 μl cell culture media and incubated overnight at 37° C. and 5% CO2. After fixation with 4% paraformaldehyde in PBS cells were washed in PBS containing 0.3% Triton-X100 and 3% BSA (w/v), followed by nuclear staining with Hoechst and antibody staining for the encoded gene of interest. Nuclear count and identification of cells stained positive for gene of interest was done on an Opera Phenix high content imager (PerkinElmer, USA).

The subject of data set [4] is Hela cells. Described as above. The following applies: LNP with WISC HA modFlu mRNA, overnight incubation. It counts as cell-based. On the procedure:
as §2, §4

Data set [5] can be described thus: Encapsulation efficiency, RiboGreen RNA quantitation assay (CA HA modFlu mRNA LNPs). It counts as physicochemical. Conditions: LNP with CA HA modFlu mRNA. In a few lines:
as §1

Data set [6] can be described thus: RNA encapsulation efficiency, Quant-iT RiboGreen RNA assay (WISC HA modFlu mRNA LNPs). It counts as physicochemical. Conditions: LNP with WISC HA modFlu mRNA. On the procedure:
as §2

In the case of `CCCCCCCC(CCCCCCC)C(=O)O[C@@H]1CC2(CCN(CCCCO)CC2)C[C@H]1OC(=O)C(CCCCCCC)CCCCCCC` (racemic) [Example 51, rac-(2R,3R)-8-(4-Hydroxybutyl)-8-azaspiro[4.5]decane-2,3-diyl bis(2-heptylnonanoate)], the “Size (nm)” value in data set [1] is listed as 58 nm; in data set [2], 72 nm. Besides, the PDI was determined as 0.030 in data set [1] and 0.03 in data set [2]. The “EC50 Hek293F (ng/well)” value in the data set with HEK293F cells worked out at 0.27 ng/well. Also, the “EC50 Hela (ng/well)” value in the data set on Hela cells [3] is reported as 0.64 ng/well; in the data set on Hela cells [4], 10.7 ng/well. Moreover, the “EC50 Hek293T (ng/well)” value in the data set on Hek293T cells is reported as 5.3 ng/well. Also, the EE % in data set [5] was 99%; in data set [6] it was 96%.

As to `CCCCCCCC(CCCCCCC)C(=O)OCC1(COC(=O)C(CCCCCCC)CCCCCCC)CCC2(CCN(CCCCO)CC2)CC1` [Example 1, (3-(4-hydroxybutyl)-3-azaspiro[5.5]undecane-9,9-diyl)bis(methylene) bis(2-heptylnonanoate)], the entries for the “Size (nm)” value in data set [1] and in data set [2] were 78 nm and 76 nm, respectively. Also, the PDI was 0.050 in data set [1] and 0.04 in data set [2]. Also, the “EC50 Hek293F (ng/well)” value in the data set on HEK293F cells turned out to be 1.7 ng/well. Besides, the “EC50 Hela (ng/well)” value was found to be 1.2 ng/well with Hela cells [3] and 18.3 ng/well in the data set on Hela cells [4]. Also, in the data set with Hek293T cells, the “EC50 Hek293T (ng/well)” value is reported as 13.9 ng/well. Also, the EE % in data set [5] worked out at 100%; in data set [6], 99%.

As to `CCCCCCCC(CCCCCCC)C(=O)OCC(COC(=O)C(CCCCCCC)CCCCCCC)C1CCC2(CC1)CCN(CCCCO)CC2` [Example 2, 2-(3-(4-hydroxybutyl)-3-azaspiro[5.5]undecan-9-yl)propane-1,3-diyl bis(2-heptylnonanoate)], the “Size (nm)” value in data set [1] was 92 nm; in data set [2], 93 nm. Further, the PDI in data set [1] is 0.040; in data set [2], 0.06. Also, the “EC50 Hek293F (ng/well)” value with HEK293F cells is listed as 2.5 ng/well. In addition, the “EC50 Hela (ng/well)” value in the data set with Hela cells [3] is 1.6 ng/well; in the data set on Hela cells [4] it was 28.1 ng/well. Further, in the data set with Hek293T cells, the “EC50 Hek293T (ng/well)” value worked out at 14.5 ng/well. Further, the EE % in data set [5] came to 100%; in data set [6], 99%.

Regarding `CCCCCCCC(CCCCCCC)C(=O)OCC(COC(=O)C(CCCCCCC)CCCCCCC)N1CCC2(CCN(CCCCO)CC2)CC1` [Example 3, 2-(9-(4-Hydroxybutyl)-3,9-diazaspiro[5.5]undecan-3-yl)propane-1,3-diyl bis(2-heptylnonanoate)], the “Size (nm)” value stood at 90 nm in data set [1] and 152 nm in data set [2]. For the same molecule, the PDI in data set [1] came out at 0.040; in data set [2], 0.07. Further, the “EC50 Hek293F (ng/well)” value with HEK293F cells worked out at 2.8 ng/well. Also, the “EC50 Hela (ng/well)” value in the data set with Hela cells [3] stood at 1.7 ng/well; in the data set with Hela cells [4] it was 18.4 ng/well. Further, the “EC50 Hek293T (ng/well)” value in the data set with Hek293T cells worked out at 11.9 ng/well. The EE % in data set [5] amounted to 100%; in data set [6], 99%.

Values taken from patent publication US20250367129A1, “Lipid Compounds and Uses Thereof” (Pfizer Inc., priority 2022, published 2025).
